Experimental findings from US20230295118A1 (EnhancedBio Inc., priority 2022, published 2023) are described below.

Holding throughout (format): cell-based
For test [1], the system named is mantle cell lymphoma cell (Mino or JeKo-1). The experiment in a line: Antiproliferative effect, MTS cell viability assay. The method, boiled down: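 MTS read-out (formazan absorbance at 490 nm) after 72 h exposure of Mino cells to 0–1 μM compound (0.0001, 0.001, 0.01, 0.1, 1 μM). Palbociclib and abemaciclib served as positive controls.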
The target in a further test is T1, CDK4 (Homo sapiens, UniProt P11802).
T1 construct: endogenous in cells
Briefly: CDK4 degradation (DC50, Dmax).

A further test deals with T2, CDK6 (Homo sapiens, UniProt Q00534).
T2 construct: endogenous in cells
Briefly: CDK6 degradation (DC50, Dmax).

The mark [2] stands for this setting: 72 h, mantle cell lymphoma cell (Mino or JeKo-1), MTS assay, read-out: IC50 (anti-proliferation).

SMILES strings stand for the structures. Like-named read-outs stand apart in the source and are kept apart here. A value given as a limit tells only on which side of the number the result lay.

T1 sequence (P11802 whole entry): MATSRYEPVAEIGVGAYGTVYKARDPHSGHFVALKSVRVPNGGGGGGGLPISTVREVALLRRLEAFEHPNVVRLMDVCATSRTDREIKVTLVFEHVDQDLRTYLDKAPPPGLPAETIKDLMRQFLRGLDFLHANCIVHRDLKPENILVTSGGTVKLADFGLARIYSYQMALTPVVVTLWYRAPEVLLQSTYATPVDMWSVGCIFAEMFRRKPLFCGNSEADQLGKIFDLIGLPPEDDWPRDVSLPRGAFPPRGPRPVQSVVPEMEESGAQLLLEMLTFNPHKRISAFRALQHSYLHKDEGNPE
T2 sequence (Q00534 whole entry): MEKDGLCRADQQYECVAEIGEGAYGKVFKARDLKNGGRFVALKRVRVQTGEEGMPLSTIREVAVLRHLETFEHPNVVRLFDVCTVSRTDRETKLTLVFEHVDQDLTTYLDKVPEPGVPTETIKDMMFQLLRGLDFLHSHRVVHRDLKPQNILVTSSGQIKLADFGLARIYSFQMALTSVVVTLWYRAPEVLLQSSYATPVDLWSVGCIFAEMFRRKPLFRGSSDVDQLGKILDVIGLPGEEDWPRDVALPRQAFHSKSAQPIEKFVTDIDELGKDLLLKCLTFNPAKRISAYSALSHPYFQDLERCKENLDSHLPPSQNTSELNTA

Consider `Cc1nc2c(F)cc(-c3nc(Nc4ccc(CC5CCN(CC6CCN(c7ccc8c(c7)C(=O)N(C7CCC(=O)NC7=O)C8=O)CC6)CC5)cn4)ncc3F)cc2n1C(C)C` (stereo not shown) [Compound 157, 2-(2,6-dioxopiperidin-3-yl)-5-(4-((4-((6-((5-fluoro-4-(4-fluoro-1-isopropyl-2-methyl-1H-benzo[d]imidazol-6-yl)pyrimidin-2-yl)amino)pyridin-3-yl)methyl)piperidin-1-yl)methyl)piperidin-1-yl)isoindoline-1,3-dione], for which the IC50 in test [1] (setting [2]) was < 50 nM. Moreover, at CDK4, the DC50 was < 50 nM and the maximal degradation (Dmax) is > 80%. At CDK6, the 50% degradation concentration (DC50) was < 50 nM and the Dmax is > 80%.

As for `Cc1nc2c(F)cc(-c3nc(Nc4ccc(CC5CCN(CC6CCN(c7ccc8c(c7)CN(C7CCC(=O)NC7=O)C8=O)CC6)CC5)cn4)ncc3F)cc2n1C(C)C` (stereo not shown) [Compound 158, 3-(5-(4-((4-((6-((5-fluoro-4-(4-fluoro-1-isopropyl-2-methyl-1H-benzo[d]imidazol-6-yl)pyrimidin-2-yi)amino)pyridin-3-yl)methyl)piperidin-1-yl)methyl)piperidin-1-yl)-1-oxoisoindolin-2-yl)piperidine-2,6-dione], the IC50 in test [1] (setting [2]) is < 50 nM. For the same compound, on CDK4, the half-maximal degradation concentration (DC50) lay within 50 to 200 nM and the greatest degradation seen (Dmax) is > 80%. At CDK6, the 50% degradation concentration (DC50) fell in the range of 50 to 200 nM and the greatest degradation seen (Dmax) was > 80%.

For `Cc1nc2c(F)cc(-c3nc(Nc4ccc(CC5CCN(CC6CCN(c7ccc(C(=O)NC8CCC(=O)NC8=O)cc7)CC6)CC5)cn4)ncc3F)cc2n1C(C)C` (stereo not shown) [Compound 159, N-(2,6-dioxopiperidin-3-yl)-4-(4-((4-((6-((5-fluoro-4-(4-fluoro-1-isopropyl-2-methyl-1H-benzo[d]imidazol-6-yl)pyrimidin-2-yl)amino)pyridin-3-yl)methyl)piperidin-1-yl)methyl)piperidin-1-yl)benzamide], in test [1] (setting [2]), the IC50 was < 50 nM. For the same compound, at CDK4, the DC50 is < 50 nM and the greatest degradation seen (Dmax) is > 80%. In addition, at CDK6, the 50% degradation concentration (DC50) was < 50 nM and the maximal degradation (Dmax) is > 80%.

Consider `Cc1nc2c(F)cc(-c3nc(Nc4ccc(CC5CCN(CC6CCN(c7ccc(NC8CCC(=O)NC8=O)cc7)CC6)CC5)cn4)ncc3F)cc2n1C(C)C` (stereo not shown) [Compound 160, 3-((4-(4-((4-((6-((5-fluoro-4-(4-fluoro-1-isopropyl-2-methyl-1H-benzo[d]imidazol-6-yl)pyrimidin-2-yl)amino)pyridin-3-yl)methyl)piperidin-1-yl)methyl)piperidin-1-yl)phenyl)amino) piperidine-2,6-dione], for which, in test [1] (setting [2]), the IC50 was < 50 nM. Further, at CDK4, the DC50 was < 50 nM and the greatest degradation seen (Dmax) was > 80%. Moreover, at CDK6, the DC50 is < 50 nM and the Dmax is > 80%.

Consider `Cc1nc2c(F)cc(-c3nc(Nc4ccc(CC5CCN(C(=O)C6CCN(c7ccc8c(c7)C(=O)N(C7CCC(=O)NC7=O)C8=O)CC6)CC5)cn4)ncc3F)cc2n1C(C)C` (stereo not shown) [Compound 161, 2-(2,6-dioxopiperidin-3-yl)-5-(4-(4-((6-((5-fluoro-4-(4-fluoro-1-isopropyl-2-methyl-1H-benzo[d]imidazol-6-yl)pyrimidin-2-yl)amino)pyridin-3-yl)methyl)piperidine-1-carbonyl)piperidin-1-yl)isoindoline-1,3-dione], for which the IC50 in test [1] (setting [2]) was in the range of 50 to 200 nM. On CDK4, the DC50 lay in the range of 50 to 200 nM and the greatest degradation seen (Dmax) was > 60%. In addition, on CDK6, the 50% degradation concentration (DC50) was > 200 nM and the Dmax was > 60%.

`Cc1nc2c(F)cc(-c3nc(Nc4ccc(CC5CCN(C(=O)C6CCN(c7ccc8c(c7)CN(C7CCC(=O)NC7=O)C8=O)CC6)CC5)cn4)ncc3F)cc2n1C(C)C` (stereo not shown) [Compound 162, 3-(5-(4-(4-((6-((5-fluoro-4-(4-fluoro-1-isopropyl-2-methyl-1H-benzo[d]imnidazol-6-yl)pyrimidin-2-yl)amino)pyridin-3-yl)methyl)piperidine-1-carbonyl)piperidin-1-yl)-1-oxoisoindolin-2-yl)piperidine-2,6-dione]: in test [1] (setting [2]), the IC50 was 50 to 200 nM. Besides, on CDK4, the DC50 lay in the range of 50 to 200 nM and the Dmax is > 60%. On CDK6, the DC50 was > 200 nM and the maximal degradation (Dmax) was > 60%.

Regarding `Cc1nc2c(F)cc(-c3nc(Nc4ccc(CC5CCN(C(=O)C6CCN(c7ccc(NC8CCC(=O)NC8=O)cc7)CC6)CC5)cn4)ncc3F)cc2n1C(C)C` (stereo not shown) [Compound 164, 3-((4-(4-(4-((6-((5-fluoro-4-(4-fluoro-1-isopropyl-2-methyl-1H-benzo[d]imidazol-6-yl)pyrimidin-2-yl)amino)pyridin-3-yl)methyl)piperidine-1-carbonyl)piperidin-1-yl)phenyl)amino) piperidine-2,6-dione], the IC50 in test [1] (setting [2]) lay in the range of 50 to 200 nM. Also, at CDK4, the half-maximal degradation concentration (DC50) was 50 to 200 nM and the Dmax was > 60%. Besides, at CDK6, the 50% degradation concentration (DC50) was in the range of 50 to 200 nM and the Dmax was > 80%.

Turning to `Cc1nc2c(F)cc(-c3nc(Nc4ccc(CN5CCN(C6CCN(c7ccc8c(c7)C(=O)N(C7CCC(=O)NC7=O)C8=O)CC6)CC5)cn4)ncc3F)cc2n1C(C)C` (stereo not shown) [Compound 165, 2-(2,6-dioxopiperidin-3-yl)-5-(4-(4-((6-((5-fluoro-4-(4-fluoro-1-isopropyl-2-methyl-1H-benzo[d]imidazol-6-yl)pyrimidin-2-yl)amino)pyridin-3-yl)methyl)piperazin-1-yl)piperidin-1-yl)isoindoline-1,3-dione], the IC50 in test [1] (setting [2]) is < 50 nM. On CDK4, the DC50 lay in the range of 50 to 200 nM and the greatest degradation seen (Dmax) is > 80%. Further, on CDK6, the DC50 lay in the range of 50 to 200 nM and the greatest degradation seen (Dmax) is > 80%.

In the case of `Cc1nc2c(F)cc(-c3nc(Nc4ccc(CN5CCN(C6CCN(c7ccc8c(c7)CN(C7CCC(=O)NC7=O)C8=O)CC6)CC5)cn4)ncc3F)cc2n1C(C)C` (stereo not shown) [Compound 166, 3-(5-(4-(4-((6-((5-fluoro-4-(4-fluoro-1-isopropyl-2-methyl-1H-benzo[d]imidazol-6-yl)pyrimidin-2-yl)amino)pyridin-3-yl)methyl)piperazin-1-yl)piperidin-1-yl)-1-oxoisoindolin-2-yl)piperidine-2,6-dione], the IC50 in test [1] (setting [2]) was < 50 nM. Besides, at CDK4, the DC50 was 50 to 200 nM and the Dmax is > 80%. Besides, at CDK6, the DC50 lay in the range of 50 to 200 nM and the maximal degradation (Dmax) is > 60%.

With `Cc1nc2c(F)cc(-c3nc(Nc4ccc(CN5CCN(C6CCN(c7ccc(C(=O)NC8CCC(=O)NC8=O)cc7)CC6)CC5)cn4)ncc3F)cc2n1C(C)C` (stereo not shown) [Compound 167, N-(2,6-dioxopiperidin-3-yl)-4-(4-(4-((6-((5-fluoro-4-(4-fluoro-1-isopropyl-2-methyl-1H-benzo[d]imidazol-6-yl)pyrimidin-2-yl)amino)pyridin-3-yl)methyl)piperazin-1-yl)piperidin-1-yl)benzamide], the IC50 in test [1] (mantle cell lymphoma cell (Mino or JeKo-1); MTS assay, 72 h; read-out: IC50 (anti-proliferation)) lay within 50 to 200 nM. In addition, on CDK4, the DC50 was in the range of 50 to 200 nM and the “Dmax CDK4” value was “B (B: >60%)”. At CDK6, the 50% degradation concentration (DC50) was in the range of 50 to 200 nM and the “Dmax CDK6” value is “B (B: >60%)”.

With `Cc1nc2c(F)cc(-c3nc(Nc4ccc(CN5CCN(C6CCN(c7ccc(NC8CCC(=O)NC8=O)cc7)CC6)CC5)cn4)ncc3F)cc2n1C(C)C` (stereo not shown) [Compound 168, 3-((4-(4-(4-((6-((5-fluoro-4-(4-fluoro-1-isopropyl-2-methyl-1H-benzo[d]imidazol-6-yl)pyrimidin-2-yl)amino)pyridin-3-yl)methyl)piperazin-1-yl)piperidin-1-yl)phenyl)amino) piperidine-2,6-dione], the IC50 in test [1] (setting [2]) is < 50 nM. Moreover, the results for the 50% degradation concentration (DC50) on CDK4 and on CDK6 were 50 to 200 nM and < 50 nM, respectively. Besides, the Dmax at CDK4 and on CDK6 was > 80% each time.

`Cc1nc2c(F)cc(-c3nc(Nc4ccc(CC5CCN(C6CCN(c7ccc8c(c7)C(=O)N(C7CCC(=O)NC7=O)C8=O)CC6)CC5)cn4)ncc3F)cc2n1C(C)C` (stereo not shown) [Compound 169, 2-(2,6-dioxopiperidin-3-yl)-5-(4-((6-((5-fluoro-4-(4-fluoro-1-isopropyl-2-methyl-1H-benzo[d]imidazol-6-yl)pyrimidin-2-yl)amino)pyridin-3-yl)methyl)-[1,4′-bipiperidin]-1′-yl)isoindoline-1,3-dione]: in test [1] (setting [2]), the IC50 was < 50 nM. Besides, on CDK4, the DC50 fell in the range of 50 to 200 nM and the greatest degradation seen (Dmax) was > 80%. Moreover, on CDK6, the DC50 lay in the range of 50 to 200 nM and the Dmax is > 80%.

With `Cc1nc2c(F)cc(-c3nc(Nc4ccc(CC5CCN(C6CCN(c7ccc8c(c7)CN(C7CCC(=O)NC7=O)C8=O)CC6)CC5)cn4)ncc3F)cc2n1C(C)C` (stereo not shown) [Compound 170, 3-(5-(4-((6-((5-fluoro-4-(4-fluoro-1-isopropyl-2-methyl-1H-benzo[d]imidazol-6-yl)pyrimidin-2-yl)amino)pyridin-3-yl)methyl)-[1,4′-bipiperidin]-1′-yl)-1-oxoisoindolin-2-yl)piperidine-2,6-dione], the IC50 in test [1] (setting [2]) is < 50 nM. Besides, at CDK4, the DC50 was < 50 nM and the Dmax was > 80%. On CDK6, the half-maximal degradation concentration (DC50) is < 50 nM and the Dmax is > 60%.

On to `Cc1nc2c(F)cc(-c3nc(Nc4ccc(CC5CCN(C6CCN(c7ccc(C(=O)NC8CCC(=O)NC8=O)cc7)CC6)CC5)cn4)ncc3F)cc2n1C(C)C` (stereo not shown) [Compound 171, N-(2,6-dioxopiperidin-3-yl)-4-(4-((6-((5-fluoro-4-(4-fluoro-1-isopropyl-2-methyl-1H-benzo[d]imidazol-6-yl)pyrimidin-2-yl)amino)pyridin-3-yl)methyl)-[1,4′-bipiperidin]-1′-yl) benzamide], for which the IC50 in test [1] (setting [2]) lay in the range of 50 to 200 nM. Moreover, on CDK4, the 50% degradation concentration (DC50) fell in the range of 50 to 200 nM and the Dmax was > 60%. Also, on CDK6, the half-maximal degradation concentration (DC50) lay in the range of 50 to 200 nM and the maximal degradation (Dmax) is > 60%.
